Experiment [1] has as its target [35S]-TBPS binding, rat brain cortical membranes. The experiment can be described thus: Steroid inhibition of [35S]-TBPS binding. The conditions noted are these: 3 nM [35S]-TBPS, in the presence of 5 mM GABA. The gist of the method:
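In the presence of […], compounds (DMSO 0.5% final) competed with 3 nM [35S]-TBPS for Sprague-Dawley rat cortical membranes, pH 7.4 phosphate buffer, 90 min, room temperature. Filtration and scintillation counting; specific binding defined by […]; IC50 and maximal inhibition fitted per experiment, averaged as mean ± SEM.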

Experiment [2] has as its target human GABAA receptors composed of the α1β2γ2 subunits (Homo sapiens (Human), UniProt P14867+P18507+P47870). Put plainly: α1β2γ2 SyncroPatch automated patch clamp assay. The format is cell-based. As to conditions: for EC50: HEK cells, potentiation of submaximal GABA current, clamped at −120 mV; for α1β2γ2 EMAX: peak current after GABA+compound divided by peak current after GABA alone. The gist of the method: (§1)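 Whole-cell recordings in HEK cells stably expressing each receptor, held at −120 mV, pH 7.4 extracellular/pH 7.2 KF-based intracellular solution. Submaximal GABA (3-5 μM or 10 μM) applied, then GABA plus compound at 0.029-30 μM (six concentrations, n=8-12 cells). Effect = peak current ratio GABA+compound/GABA alone; EC50 and Emax from concentration means.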
(Patch clamp records ionic current or voltage across a cell membrane.)

Experiment [3] has as its target human GABAA receptors composed of the α4β3δ subunits (Homo sapiens (Human), UniProt O14764+P28472+P48169). Put plainly: α4β3δ SyncroPatch automated patch clamp assay. The format is cell-based. As to conditions: for EC50: HEK cells, potentiation of submaximal GABA current, clamped at −120 mV; for α4β3δ EMAX: peak current after GABA+compound divided by peak current after GABA alone. In short, it runs like this: as §1

human GABAA receptors composed of the α4β3δ subunits, sequence (P48169 36-554 limits assumed): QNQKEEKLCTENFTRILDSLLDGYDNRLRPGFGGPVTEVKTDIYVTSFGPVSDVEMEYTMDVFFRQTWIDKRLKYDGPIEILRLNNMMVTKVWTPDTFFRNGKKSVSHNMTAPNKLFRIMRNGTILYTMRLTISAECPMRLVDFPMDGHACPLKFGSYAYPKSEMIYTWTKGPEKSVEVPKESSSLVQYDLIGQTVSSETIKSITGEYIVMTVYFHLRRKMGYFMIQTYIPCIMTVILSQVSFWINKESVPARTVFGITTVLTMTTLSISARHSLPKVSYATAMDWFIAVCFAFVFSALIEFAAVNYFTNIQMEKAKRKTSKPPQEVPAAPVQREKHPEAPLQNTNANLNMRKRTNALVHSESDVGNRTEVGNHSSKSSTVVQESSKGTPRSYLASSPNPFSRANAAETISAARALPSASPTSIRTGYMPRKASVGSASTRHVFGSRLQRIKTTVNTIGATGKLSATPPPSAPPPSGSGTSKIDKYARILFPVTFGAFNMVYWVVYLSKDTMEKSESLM
human GABAA receptors composed of the α4β3δ subunits, sequence (P28472 26-473 limits assumed): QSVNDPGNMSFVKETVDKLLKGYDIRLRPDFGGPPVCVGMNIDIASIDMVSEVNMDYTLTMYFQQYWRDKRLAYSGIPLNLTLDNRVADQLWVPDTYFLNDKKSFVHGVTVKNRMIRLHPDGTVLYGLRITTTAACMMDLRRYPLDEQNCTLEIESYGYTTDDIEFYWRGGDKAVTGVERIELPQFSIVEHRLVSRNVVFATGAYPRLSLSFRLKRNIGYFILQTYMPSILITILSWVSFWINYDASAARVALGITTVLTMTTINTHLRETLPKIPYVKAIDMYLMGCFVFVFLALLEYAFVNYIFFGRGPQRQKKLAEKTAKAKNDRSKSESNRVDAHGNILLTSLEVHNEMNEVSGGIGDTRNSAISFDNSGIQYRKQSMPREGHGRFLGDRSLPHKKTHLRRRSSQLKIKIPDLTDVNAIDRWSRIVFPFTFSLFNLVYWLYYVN
human GABAA receptors composed of the α4β3δ subunits, sequence (O14764 17-452 limits assumed): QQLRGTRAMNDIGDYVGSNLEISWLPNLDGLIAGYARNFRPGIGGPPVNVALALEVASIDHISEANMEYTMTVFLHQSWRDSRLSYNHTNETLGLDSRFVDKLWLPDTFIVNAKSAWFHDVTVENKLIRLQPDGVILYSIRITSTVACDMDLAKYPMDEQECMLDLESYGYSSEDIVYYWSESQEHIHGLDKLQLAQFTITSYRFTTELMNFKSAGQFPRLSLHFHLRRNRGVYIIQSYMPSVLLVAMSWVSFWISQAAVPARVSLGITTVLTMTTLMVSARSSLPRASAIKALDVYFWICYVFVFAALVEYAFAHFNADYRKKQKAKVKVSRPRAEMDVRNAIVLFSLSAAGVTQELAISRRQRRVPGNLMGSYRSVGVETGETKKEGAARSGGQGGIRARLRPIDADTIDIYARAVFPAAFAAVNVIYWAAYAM
human GABAA receptors composed of the α1β2γ2 subunits, sequence (P14867 28-456 limits assumed): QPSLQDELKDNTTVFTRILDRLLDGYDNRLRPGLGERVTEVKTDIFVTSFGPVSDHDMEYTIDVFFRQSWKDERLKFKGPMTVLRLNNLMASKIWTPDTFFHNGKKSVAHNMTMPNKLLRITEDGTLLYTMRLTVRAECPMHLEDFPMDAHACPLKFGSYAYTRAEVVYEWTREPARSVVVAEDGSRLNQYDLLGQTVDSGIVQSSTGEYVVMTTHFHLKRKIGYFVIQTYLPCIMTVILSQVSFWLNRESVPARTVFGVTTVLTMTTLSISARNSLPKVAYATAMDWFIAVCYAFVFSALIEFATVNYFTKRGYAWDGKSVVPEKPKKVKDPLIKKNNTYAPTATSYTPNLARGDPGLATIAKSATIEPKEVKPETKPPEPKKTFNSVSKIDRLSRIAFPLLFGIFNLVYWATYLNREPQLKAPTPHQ
human GABAA receptors composed of the α1β2γ2 subunits, sequence (P47870 25-512 limits assumed): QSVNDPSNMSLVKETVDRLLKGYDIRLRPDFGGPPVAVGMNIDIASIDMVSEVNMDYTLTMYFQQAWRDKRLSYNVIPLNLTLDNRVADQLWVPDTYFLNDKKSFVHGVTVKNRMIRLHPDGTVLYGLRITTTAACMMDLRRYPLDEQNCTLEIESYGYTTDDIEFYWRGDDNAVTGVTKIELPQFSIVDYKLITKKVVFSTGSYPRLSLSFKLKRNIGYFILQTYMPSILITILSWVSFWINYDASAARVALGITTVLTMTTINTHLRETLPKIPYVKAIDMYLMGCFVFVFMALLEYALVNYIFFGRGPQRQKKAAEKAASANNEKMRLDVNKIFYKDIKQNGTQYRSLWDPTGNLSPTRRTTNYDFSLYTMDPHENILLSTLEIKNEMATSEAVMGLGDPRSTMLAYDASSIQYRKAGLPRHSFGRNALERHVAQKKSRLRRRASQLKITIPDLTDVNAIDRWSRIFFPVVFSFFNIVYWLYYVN
human GABAA receptors composed of the α1β2γ2 subunits, sequence (P18507 40-475 limits assumed): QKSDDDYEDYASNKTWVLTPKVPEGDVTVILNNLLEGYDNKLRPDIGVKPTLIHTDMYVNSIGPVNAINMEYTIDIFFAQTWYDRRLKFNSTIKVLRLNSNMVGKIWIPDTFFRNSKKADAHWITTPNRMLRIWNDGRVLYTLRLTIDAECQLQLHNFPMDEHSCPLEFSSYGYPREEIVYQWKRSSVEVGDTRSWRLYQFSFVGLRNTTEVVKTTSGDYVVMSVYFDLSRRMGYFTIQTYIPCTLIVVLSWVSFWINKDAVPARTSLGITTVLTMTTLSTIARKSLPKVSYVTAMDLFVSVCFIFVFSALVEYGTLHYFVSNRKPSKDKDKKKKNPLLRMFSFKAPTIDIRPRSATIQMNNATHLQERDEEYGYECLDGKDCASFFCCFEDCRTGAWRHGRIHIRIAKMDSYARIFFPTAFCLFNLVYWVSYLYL

As to `CCOC[C@@]1(O)CC[C@H]2[C@H](CC[C@@H]3[C@@H]2CC[C@]2(C)[C@@H]([C@H](C)Cn4ccc(C#N)n4)CC[C@@H]32)C1` [Example 287, 1-((S)-2-((3R,5R,8R,9R,10S,13S,14S,17R)-3-(ethoxymethyl)-3-hydroxy-13-methylhexadecahydro-1H-cyclopenta[a]phenanthren-17-yl)propyl)-1H-pyrazole-3-carbonitrile], the IC50 (as a rule, the concentration that gives 50% inhibition) in experiment [1] is under 100 nM. Further, in experiment [2], the EC50 (in general, the concentration at which the effect is half-maximal) fell in the range of 200 to 1000 nM and the “α1β2γ2 EMAX” value is on record as “B (B indicates an Emax response 8 to <10)”. Further, in experiment [3], the half-maximal effective concentration (EC50) is 200 to 1000 nM and the “α4β3δ EMAX” value was “A (A indicates an Emax response <30)”.

Turning to `COC[C@@]1(O)CC[C@H]2[C@@H](CC[C@@H]3[C@@H]2CC[C@]2(C)[C@@H]([C@@H](C)Cn4nnc(C)n4)CC[C@@H]32)C1` [Example 53, (3R,5S,8R,9R,10S,13S,14S,17R)-3-(methoxymethyl)-13-methyl-17-((R)-1-(5-methyl-2H-tetrazol-2-yl)propan-2-yl)hexadecahydro-1H-cyclopenta[a]phenanthren-3-ol], the concentration for half-maximal inhibition (IC50) in experiment [1] is 100 to 1000 nM. Besides, in experiment [2], the half-maximal effective concentration (EC50) was at least 1000 nM and the “α1β2γ2 EMAX” value is recorded as “A (A indicates an Emax response <8)”. In experiment [3], the EC50 was at least 1000 nM and the “α4β3δ EMAX” value is listed as “A (A indicates an Emax response <30)”.

For `CCC[C@@]1(O)CC[C@H]2[C@@H](CC[C@@H]3[C@@H]2CC[C@]2(C)[C@@H]([C@@H](C)Cn4nnnc4C)CC[C@@H]32)C1` [Example 332, (3R,5S,8R,9R,10S,13S,14S,17R)-13-methyl-17-((R)-1-(5-methyl-1H-tetrazol-1-yl)propan-2-yl)-3-propylhexadecahydro-1H-cyclopenta[a]phenanthren-3-ol], the IC50 in experiment [1] is 100 to 1000 nM. In addition, in experiment [2], the concentration for a half-maximal effect (EC50) was under 200 nM and the “α1β2γ2 EMAX” value is recorded as “A (A indicates an Emax response <8)”. Besides, in experiment [3], the EC50 was 200 to 1000 nM and the “α4β3δ EMAX” value was “A (A indicates an Emax response <30)”.

Values taken from US20230322846A9, “NEUROACTIVE STEROIDS AND THEIR METHODS OF USE” (SAGE THERAPEUTICS, INC., priority 2018, published 2023).
